Structures can show the parent of a compound that is named as a salt. Where two headings read alike, the source gives them in different places.
What was measured:
[1] = tested on: Candida albicans TIMM 1623; experiment: Antifungal action, microbroth dilution growth inhibition; type: cell-based; settings: read-out: IC50 (50% growth inhibitory concentration)
Protocol: 50% growth inhibitory concentration (IC50) was measured according to the microbroth dilution method, using, as a reference, the antifungal agent sensitivity test method proposed by the subcommittee for the antifungal agent sensitivity test, the Japanese Society for Medical Mycology (Japanese Journal of Medical Mycology, vol. 36, No. 1, pp. 62 to 64, 1995). Synthetic amino acid medium, fungal (SAAMF, manufactured by Nippon Bio-Supp. Center) was used as a medium for measurement of sensitivity. Candida albicans TIMM 1623 was cultured at 30° C. overnight on a Sabouraud agar plate medium (Eiken Chemical Co., Ltd.), and the obtained culture was suspended in a sterilized physiological saline solution. Thereafter, the suspension was diluted with a measurement medium such that the number of cells became 1×10^4 cells/ml, thereby producing an inoculum organism solution. 175 μl of a medium, 5 μl of a test agent (an agent diluted solvent in a growth control well), and 20 μl of the inoculum organism solution were added to a 96-well microplate (flat bottom, manufactured by Sumitomo Bakelite Co., Ltd.), and the mixture was stirred with a mixer. Thereafter, using a well Reader SME3400 (Scinics Co., Ltd.), an initial turbidity at a wavelength of 630 nm was measured. The above mixture was cultured at 35° C., and 36 hours later, a final turbidity was measure in the same manner. For an agent-diluted line, values were obtained by subtracting the initial turbidities from the final turbidities. For a growth control line also, values were obtained by subtracting the initial turbidities from the final turbidities. IC50 was defined as the lowest agent concentration among the test agent concentrations having a turbidity equal to or lower than the 50% value (IC50 calculated value) of a value obtained by subtracting the initial turbidity of a growth control from the final turbidity thereof.

[2] = tested on: Candida albicans TIMM 1623; experiment: Therapeutic effect on mouse systemic Candida albicans infection, single subcutaneous dose, T/C survival; type: in vivo, ICR male mice; settings: 0.1 mg/kg, administered once into the dorsal subcutis 2 hours after infection; observed until the 14th day
Protocol: Candida albicans TIMM 1623 was cultured at 30° C. overnight on a Sabouraud agar plate medium (Eiken Chemical Co., Ltd.), and the obtained culture was suspened in a sterilized physiological saline solution. Thus, a fungal solution for infection, having a concentration of 1×10^7 cells/ml, was prepared. This fungal solution was inoculated in a concentration of 0.2 ml (2×10^6 CFU/mouse) into the tail vein of each of five ICR male mice (4-week-old, body weight of 20±1 g). 2 hours later, 0.2 ml of a solution, which had been prepared by dissolving a test compound into a sterilized physiological saline solution and setting the concentration at 0.01 mg/ml, was administered once into the dorsal subcutis of each mouse. To mice of a control group, an equal amount of a sterilized physiological saline solution was administered.
Viability of the mice was observed until the 14th day after the infection, and the cumulative survival rate (T/C) of the treatment group to the control group was calculated, and the obtained value was used as an index of the life-prolonging effect.

[3] = tested on: Candida albicans TIMM 1623; experiment: Therapeutic effect on mouse systemic Candida albicans infection, 7 subcutaneous doses, survival to day 28; type: in vivo, ICR male mice; settings: 0.2 ml of 0.01 mg/ml solution subcutaneously once a day, 7 times in total; five mice per group; control group all died
Protocol: Candida albicans TIMM 1623 was cultured at 30° C. overnight on a Sabouraud agar plate medium (Eiken Chemical Co., Ltd.), and the cultured fumgus was suspended in a sterilized physiological saline solution. Thus, a fungal solution for infection, having a concentration of approximately 10^7 cells/ml, was prepared. 0.2 ml of this fungal solution was inoculated into the tail vein of each of five ICR male mice (4-week-old, body weight of 20±1 g). 2 hours after the infection, 0.2 ml of a solution, which had been prepared by dissolving a test compound into a sterilized physiological saline solution and adjusting the concentration at 0.01 mg/ml, was administered once into the dorsal subcutis of each mouse. From the following day, the same solution was administered thereto once a day for 6 days. Thus, the above solution was administered into the dorsal subcutis of the mice 7 times in total. To mice of a control group, an equal amount of a sterilized physiological saline solution was administered. Viability of the mice was observed until the 28th day after the infection.

[4] = Candida albicans, TIMM1623, 36 h
[5] = TIMM1623, Candida albicans TIMM 1623, SAAMF medium, 35° C., 36 hours, turbidity at 630 nm

SMILES | IC50 [1, 4] [mg/L] | other results
CNCCCOc1ccc(C(=N)N)cc1 [Example 2, 4-[3-(methylamino)propoxy]benzamidine Hydrochloride] | 2 | 
N=C(N)c1ccc(OCCCNCCCCCC(=O)O)cc1 [Example 3-2, 6-[(3-{4-[amino(imino)methyl]phenoxy}propyl)amino]hexanoic Acid Hydrochloride] | 0.5 | 
N=C(N)c1ccc(OCCCCN)cc1 [Example 5, 4-(4-aminobutoxy)benzamidine hydrochloride] | 0.25 | 
N=C(N)c1ccc(OCCCCCN)cc1 [Example 7, 4-[(5-aminopentyl)oxy]benzamidine Hydrochloride] | 0.5 | 
N=C(N)c1ccc(OCCCN)cc1 [Example 9-2, 4-(3-aminopropoxy)benzamidine Hydrochloride] | 0.5 | 
N=C(N)c1ccc(OCCCNCCN)cc1 [Example 10, 4-{3-[(2-aminoethyl)amino]propoxy}benzamidine hydrochloride] | 1 | 
N=C(N)c1ccc(OCCCN2CCN(CCCOc3ccc(C(=N)N)cc3)C(=O)C2=O)cc1 [Example 19, 4-{3-[4-(3-{4-[amino(imino)methyl]phenoxy}propyl)-2,3-dioxo-1-piperazinyl]propoxy}benzamidine acetate] |  | IC50 [1, 5]: 0.125 mg/L
N=C(N)c1ccc(OCCN2CCN(CCOc3ccc(C(=N)N)cc3)C(=O)C2=O)cc1 [Example 20, 4-{2-[4-(2-{4-[amino(imino)methyl]phenoxy}ethyl)-2,3-dioxo-1-piperazinyl]ethoxy}benzamidine Acetate] |  | IC50 [1, 5]: 0.125 mg/L
N=C(N)c1ccc(OCCCCN2CCN(CCCCOc3ccc(C(=N)N)cc3)C(=O)C2=O)cc1 [Example 21, 4-{4-[4-(4-{4-[amino(imino)methyl]phenoxy}butyl)-2,3-dioxo-1-piperazinyl]butoxy}benzamidine Acetate] |  | IC50 [1, 5]: 0.25 mg/L
N=C(N)c1ccc(OCCCN2CCN(CCOc3ccc(C(=N)N)cc3)C(=O)C2=O)cc1 [Example 22, 4-{3-[4-(2-{4-[amino(imino)methyl]phenoxy}ethyl)-2,3-dioxo-1-piperazinyl]propoxy}benzamidine Acetate] |  | IC50 [1, 5]: 2 mg/L
N=C(N)c1ccc(OC/C=C/CN2CCN(CCCOc3ccc(C(=N)N)cc3)C(=O)C2=O)cc1 [Example 23, 4-({(E)-4-[4-(3-{4-[amino(imino)methyl]phenoxy}propyl)-2,3-dioxo-1-piperazinyl]-2-butenyl}oxy)benzamidine Acetate] |  | IC50 [1, 5]: 2 mg/L
N=C(N)c1ccc(OCCCNCCNCCCOc2ccc(C(=N)N)cc2)cc1 [Example 24, 4-[3-({2-[(3-{4-[amino(imino)methyl]phenoxy}propyl)amino]ethyl}amino)propoxy]benzamidine hydrochloride] | 0.0078 | cumulative survival rate (T/C) of the treatment group to the control group [2]: 180; survival ratio on the 28th day after the infection [3]: 3/5
N=C(N)c1ccc(OCCNCCNCCOc2ccc(C(=N)N)cc2)cc1 [Example 25, 4-[2-({2-[(2-{4-[amino(imino)methyl]phenoxy}ethyl)amino]ethyl}amino)ethoxy]benzamidine Hydrochloride] | 0.0156 | 
N=C(N)c1ccc(OCCCCNCCNCCCCOc2ccc(C(=N)N)cc2)cc1 [Example 26, 4-[4-({2-[(4-{4-[amino(imino)methyl]phenoxy}butyl)amino]ethyl}amino)butoxy]benzamidine Hydrochloride] | 0.0625 | 
N=C(N)c1ccc(OCCCNCCNCCOc2ccc(C(=N)N)cc2)cc1 [Example 27, 4-[3-({2-[(2-{4-[amino(imino)methyl]phenoxy}ethyl)amino]ethyl}amino)propoxy]benzamidine Hydrochloride] | 0.0313 | 
N=C(N)c1ccc(OCCCNCCCOc2ccc(C(=N)N)cc2)cc1 [Example 32, 4-{3-[(3-{4-[amino(imino)methyl]phenoxy}propyl)amino]propoxy}benzamidine Hydrochloride] | 0.0313 | 
N=C(N)c1ccc(OCCCN2CCN(CCCOc3ccc(C(=N)N)cc3)CC2)cc1 [Example 40-2, 4-{3-[4-(3-{4-[amino(imino)methyl]phenoxy}propyl)-1-piperazinyl]propoxy}benzamidine hydrochloride] | 0.0039 | survival ratio on the 28th day after the infection [3]: 4/5
N=C(N)c1ccc(OCCCN2CCN(CCCOc3ccc(C(=N)N)c(F)c3)CC2)cc1F [Example 42, 4-{3-[4-(3-{4-[amino(imino)methyl]-3-fluorophenoxy}propyl)-1-piperazinyl]propoxy}-2-fluorobenzamidine Hydrochloride] | 0.0156 | 
N=C(N)c1ccc(OCCCN2CCN(CCCOc3ccc(C(=N)N)cc3F)CC2)c(F)c1 [Example 43, 4-{3-[4-(3-{4-[amino(imino)methyl]-2-fluorophenoxy}propyl)-1-piperazinyl]propoxy}-3-fluorobenzamidine Hydrochloride] | 0.0313 | 
N=C(N)c1ccc(OCCCN2CCCN(CCCOc3ccc(C(=N)N)cc3)CC2)cc1 [Example 55, 4-{3-[4-(3-{4-[amino(imino)methyl]phenoxy}propyl)-1,4-diazepan-1-yl]propoxy}benzamidine Hydrochloride] | 0.0156 | 
N=C(N)c1ccc(OCCCN2CCC(CCOc3ccc(C(=N)N)cc3)CC2)cc1 [Example 56, 4-{2-[1-(3-{4-[amino(imino)methyl]phenoxy}propyl)-4-piperidinyl]ethoxy}benzamidine Hydrochloride] | 0.0039 | survival ratio on the 28th day after the infection [3]: 4/5
N=C(N)c1ccc(OCCCNC2CCN(CCCOc3ccc(C(=N)N)cc3)C2)cc1 (stereo not shown) [Example 57, 4-(3-{3-[(3-{4-[amino (imino)methyl]phenoxy}propyl)amino]-1-pyrrolidinyl}propoxy)benzamidine Hydrochloride] | 0.0313 | 
N=C(N)c1ccc(OCCCNC2CCN(CCCOc3ccc(C(=N)N)cc3)CC2)cc1 [Example 58, 4-(3-{[1-(3-{4-[amino(imino)methyl]phenoxy}propyl)-4-piperidinyl]amino}propoxy)benzamidine Hydrochloride] | 0.0313 | 
N=C(N)c1ccc(OCCCNCCNCCCOc2cccc(C(=N)N)c2)cc1 [Example 74, 3-[3-({2-[(3-{4-[amino(imino)methyl]phenoxy}propyl)amino]ethyl}amino)propoxy]benzamidine Hydrochloride] | 0.125 | 
